Assay results as given in patent publication US7786081B2, “Peptide composition” (Pepsyn Ltd., priority 1993, dated 2010).

Legend:
[1] = known agent, stated drawback; cited from earlier work
[2] = test system: Human keratinocytes (HatKat); experiment: Growth of keratinocytes (cell count, Coulter counter); assay type: cell-based
Method: Human keratinocytes (HatKat) were grown in keratinocyte growth medium (TCS Cellworks Ltd.) until 20% confluence. Then, in the same medium, the keratinocytes were grown for three days with 0.5% foetal calf serum (FCS), at which point the cells were counted in a Coulter® counter. The cell numbers obtained are set out in Table 3 below.

Row | Compound | erythema at the site of application [1] | increase in the growth of keratinocytes ([2]; 10 ng/ml EGF vs medium with 0.5% FCS) | Number of cells ([2]; Medium with 0.5% FCS + 10 ng/ml EGF, three days, medium alone 23,777)
1 | CC1=C(/C=C/C(C)=C/C=C/C(C)=C/C(=O)O)C(C)(C)CCC1 [all-trans retinoic acid] | produces marked erythema | – | –
2 | EGF: epidermal growth factor, comparator in the keratinocyte growth test (NSDSECPLSHDGYCLHDGVCMYIEALDKYACNCVVGYIGERCQYRDLKWWELR; UniProt P01133 971-1023, looked up) | – | relatively modest increase | 29,356
